Assay results from the kinase profiling compilation of Christmann-Franck et al. (2016).

What was measured:
Test in all cases: radiometric filter-binding kinase assay, Kinase HotSpot
Conditions in all cases: compound 0.5 µM; ATP 10 µM
[1] = biological target: ADRBK2 (human) (UniProt P35626)
[2] = biological target: AKT1 (human) (UniProt P31749)
[3] = biological target: CAMKK1 (human) (UniProt Q8N5S9)
[4] = biological target: CDK3 CCNE1 (human) (UniProt Q00526+P24864)
[5] = biological target: CLK3 (human) (UniProt P49761)
[6] = biological target: CSNK1A1 (human) (UniProt P48729)
[7] = biological target: CSNK1G1 (human) (UniProt Q9HCP0)
[8] = biological target: DYRK2 (human) (UniProt Q92630)
[9] = biological target: EPHA5 (human) (UniProt P54756)
[10] = biological target: EPHB1 (human) (UniProt P54762)
[11] = biological target: EPHB3 (human) (UniProt P54753)
[12] = biological target: FER (human) (UniProt P16591)
[13] = biological target: FLT3 (human) (UniProt P36888)
[14] = biological target: GRK6 (human) (UniProt P43250)
[15] = biological target: INSRR (human) (UniProt P14616)
[16] = biological target: IRAK1 (human) (UniProt P51617)
[17] = biological target: IRAK4 (human) (UniProt Q9NWZ3)
[18] = biological target: LIMK1 (human) (UniProt P53667)
[19] = biological target: MAP3K5 (human) (UniProt Q99683)
[20] = biological target: MAP4K2 (human) (UniProt Q12851)
[21] = biological target: MAPK10 (human) (UniProt P53779)
[22] = biological target: MARK3 (human) (UniProt P27448)
[23] = biological target: NEK1 (human) (UniProt Q96PY6)
[24] = biological target: NEK11 (human) (UniProt Q8NG66)
[25] = biological target: NEK3 (human) (UniProt P51956)
[26] = biological target: NEK6 (human) (UniProt Q9HC98)
[27] = biological target: NLK (human) (UniProt Q9UBE8)
[28] = biological target: PDGFRB (human) (UniProt P09619)
[29] = biological target: PIM1 (human) (UniProt P11309)
[30] = biological target: PRKCB1 (human) (UniProt P05771)
[31] = biological target: PRKCE (human) (UniProt Q02156)
[32] = biological target: PRKCI (human) (UniProt P41743)
[33] = biological target: PRKD1 (human) (UniProt Q15139)
[34] = biological target: PRKX (human) (UniProt P51817)
[35] = biological target: RIPK2 (human) (UniProt O43353)
[36] = biological target: RPS6KA4 KD2 (human) (UniProt O75676)
[37] = biological target: RPS6KA5 KD2 (human) (UniProt O75582)
[38] = biological target: SRC (human) (UniProt P12931)
[39] = biological target: SRPK1 (human) (UniProt Q96SB4)
[40] = biological target: SYK (human) (UniProt P43405)
[41] = biological target: TSSK2 (human) (UniProt Q96PF2)
[42] = biological target: YES1 (human) (UniProt P07947)

MARK3 (human), sequence (P27448 whole entry, looked up): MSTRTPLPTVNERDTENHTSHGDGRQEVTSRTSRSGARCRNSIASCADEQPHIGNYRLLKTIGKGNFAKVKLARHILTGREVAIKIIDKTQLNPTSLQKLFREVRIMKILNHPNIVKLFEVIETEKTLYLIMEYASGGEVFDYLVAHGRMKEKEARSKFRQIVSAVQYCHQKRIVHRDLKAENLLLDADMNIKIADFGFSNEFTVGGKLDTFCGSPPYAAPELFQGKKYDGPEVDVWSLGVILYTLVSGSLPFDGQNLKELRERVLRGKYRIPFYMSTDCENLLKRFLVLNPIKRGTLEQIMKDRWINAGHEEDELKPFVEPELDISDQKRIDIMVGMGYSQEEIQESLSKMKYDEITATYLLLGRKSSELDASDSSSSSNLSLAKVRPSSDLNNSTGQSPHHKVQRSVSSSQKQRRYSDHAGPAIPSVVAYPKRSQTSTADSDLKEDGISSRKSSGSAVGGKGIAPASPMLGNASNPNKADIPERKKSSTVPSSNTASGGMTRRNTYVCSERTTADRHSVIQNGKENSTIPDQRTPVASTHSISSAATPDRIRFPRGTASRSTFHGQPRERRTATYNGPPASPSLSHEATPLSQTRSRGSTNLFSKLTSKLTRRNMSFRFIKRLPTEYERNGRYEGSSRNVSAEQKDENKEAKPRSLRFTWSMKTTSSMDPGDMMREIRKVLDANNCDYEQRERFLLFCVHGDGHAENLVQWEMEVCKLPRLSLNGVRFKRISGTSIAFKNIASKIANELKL
EPHA5 (human), sequence (P54756 whole entry, looked up): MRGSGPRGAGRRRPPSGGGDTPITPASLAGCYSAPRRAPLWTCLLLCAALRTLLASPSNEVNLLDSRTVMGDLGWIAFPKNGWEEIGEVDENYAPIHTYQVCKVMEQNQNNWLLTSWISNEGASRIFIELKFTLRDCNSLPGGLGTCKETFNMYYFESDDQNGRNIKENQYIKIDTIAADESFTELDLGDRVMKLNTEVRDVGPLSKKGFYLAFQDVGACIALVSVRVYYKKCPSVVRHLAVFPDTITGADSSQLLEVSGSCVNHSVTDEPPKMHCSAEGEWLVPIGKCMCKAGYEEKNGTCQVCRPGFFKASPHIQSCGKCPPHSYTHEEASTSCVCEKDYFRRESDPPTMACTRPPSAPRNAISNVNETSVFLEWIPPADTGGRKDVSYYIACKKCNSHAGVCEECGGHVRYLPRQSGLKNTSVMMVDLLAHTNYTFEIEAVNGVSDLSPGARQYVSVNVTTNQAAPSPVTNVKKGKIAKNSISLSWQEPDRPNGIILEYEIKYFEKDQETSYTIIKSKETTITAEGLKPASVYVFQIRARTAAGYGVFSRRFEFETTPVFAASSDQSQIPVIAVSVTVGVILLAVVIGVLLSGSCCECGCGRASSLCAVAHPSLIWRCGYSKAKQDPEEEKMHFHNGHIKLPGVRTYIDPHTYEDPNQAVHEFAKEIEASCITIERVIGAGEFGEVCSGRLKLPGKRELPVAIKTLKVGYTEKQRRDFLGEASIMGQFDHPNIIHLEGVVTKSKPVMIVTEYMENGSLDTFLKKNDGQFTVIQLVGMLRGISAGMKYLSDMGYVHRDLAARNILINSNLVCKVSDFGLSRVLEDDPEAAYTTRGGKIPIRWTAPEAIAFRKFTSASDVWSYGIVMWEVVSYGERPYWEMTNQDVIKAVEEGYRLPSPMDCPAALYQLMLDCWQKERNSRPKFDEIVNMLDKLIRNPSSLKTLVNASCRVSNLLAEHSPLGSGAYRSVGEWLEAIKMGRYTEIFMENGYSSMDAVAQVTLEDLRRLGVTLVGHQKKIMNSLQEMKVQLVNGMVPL
INSRR (human), sequence (P14616 whole entry, looked up): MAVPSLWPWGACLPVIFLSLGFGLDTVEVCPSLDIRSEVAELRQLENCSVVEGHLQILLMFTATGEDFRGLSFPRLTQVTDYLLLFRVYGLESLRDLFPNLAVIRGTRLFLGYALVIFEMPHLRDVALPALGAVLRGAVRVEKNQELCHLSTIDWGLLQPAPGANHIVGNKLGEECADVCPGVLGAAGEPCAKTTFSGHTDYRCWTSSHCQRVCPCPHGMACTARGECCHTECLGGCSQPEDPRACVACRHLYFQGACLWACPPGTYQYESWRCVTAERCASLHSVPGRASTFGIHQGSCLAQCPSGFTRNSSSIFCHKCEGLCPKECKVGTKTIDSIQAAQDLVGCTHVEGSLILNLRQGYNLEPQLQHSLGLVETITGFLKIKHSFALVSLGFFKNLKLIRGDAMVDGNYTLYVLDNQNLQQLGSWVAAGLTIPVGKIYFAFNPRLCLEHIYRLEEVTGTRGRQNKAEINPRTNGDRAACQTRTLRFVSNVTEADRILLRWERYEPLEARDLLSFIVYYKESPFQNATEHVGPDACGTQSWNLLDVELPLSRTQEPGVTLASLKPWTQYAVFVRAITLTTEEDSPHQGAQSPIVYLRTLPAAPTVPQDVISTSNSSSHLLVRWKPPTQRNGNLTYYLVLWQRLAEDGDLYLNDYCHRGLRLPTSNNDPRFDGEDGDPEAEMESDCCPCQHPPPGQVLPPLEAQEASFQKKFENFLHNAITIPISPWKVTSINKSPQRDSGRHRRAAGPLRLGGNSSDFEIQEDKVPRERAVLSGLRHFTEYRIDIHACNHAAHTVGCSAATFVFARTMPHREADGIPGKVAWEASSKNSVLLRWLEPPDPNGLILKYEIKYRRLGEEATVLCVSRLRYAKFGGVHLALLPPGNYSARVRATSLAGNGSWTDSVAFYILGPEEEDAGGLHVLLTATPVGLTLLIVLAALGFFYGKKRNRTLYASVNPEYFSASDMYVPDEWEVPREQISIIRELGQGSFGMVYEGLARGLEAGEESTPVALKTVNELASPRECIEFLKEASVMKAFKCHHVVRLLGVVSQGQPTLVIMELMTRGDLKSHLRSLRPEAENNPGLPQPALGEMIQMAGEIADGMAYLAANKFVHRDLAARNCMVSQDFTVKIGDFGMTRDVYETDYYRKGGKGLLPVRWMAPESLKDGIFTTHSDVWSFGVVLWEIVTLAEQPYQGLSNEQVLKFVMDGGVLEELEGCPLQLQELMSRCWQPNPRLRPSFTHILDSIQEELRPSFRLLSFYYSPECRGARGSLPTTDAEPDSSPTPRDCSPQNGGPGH
GRK6 (human), sequence (P43250 whole entry, looked up): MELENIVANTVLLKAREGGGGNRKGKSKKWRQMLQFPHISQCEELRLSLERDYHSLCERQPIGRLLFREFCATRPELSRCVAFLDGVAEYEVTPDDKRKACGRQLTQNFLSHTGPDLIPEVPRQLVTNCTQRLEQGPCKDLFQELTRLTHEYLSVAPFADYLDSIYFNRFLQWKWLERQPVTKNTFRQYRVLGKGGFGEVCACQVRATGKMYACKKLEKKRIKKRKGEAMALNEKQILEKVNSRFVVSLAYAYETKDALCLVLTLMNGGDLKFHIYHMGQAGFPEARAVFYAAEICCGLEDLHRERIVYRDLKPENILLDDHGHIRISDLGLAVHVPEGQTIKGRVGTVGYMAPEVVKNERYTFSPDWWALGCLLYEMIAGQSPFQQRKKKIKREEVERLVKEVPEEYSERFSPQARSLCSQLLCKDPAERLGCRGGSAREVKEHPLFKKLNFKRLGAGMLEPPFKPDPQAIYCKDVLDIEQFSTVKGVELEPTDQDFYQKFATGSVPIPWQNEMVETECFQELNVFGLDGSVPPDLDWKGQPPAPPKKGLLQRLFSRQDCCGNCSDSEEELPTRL
FER (human), sequence (P16591 whole entry, looked up): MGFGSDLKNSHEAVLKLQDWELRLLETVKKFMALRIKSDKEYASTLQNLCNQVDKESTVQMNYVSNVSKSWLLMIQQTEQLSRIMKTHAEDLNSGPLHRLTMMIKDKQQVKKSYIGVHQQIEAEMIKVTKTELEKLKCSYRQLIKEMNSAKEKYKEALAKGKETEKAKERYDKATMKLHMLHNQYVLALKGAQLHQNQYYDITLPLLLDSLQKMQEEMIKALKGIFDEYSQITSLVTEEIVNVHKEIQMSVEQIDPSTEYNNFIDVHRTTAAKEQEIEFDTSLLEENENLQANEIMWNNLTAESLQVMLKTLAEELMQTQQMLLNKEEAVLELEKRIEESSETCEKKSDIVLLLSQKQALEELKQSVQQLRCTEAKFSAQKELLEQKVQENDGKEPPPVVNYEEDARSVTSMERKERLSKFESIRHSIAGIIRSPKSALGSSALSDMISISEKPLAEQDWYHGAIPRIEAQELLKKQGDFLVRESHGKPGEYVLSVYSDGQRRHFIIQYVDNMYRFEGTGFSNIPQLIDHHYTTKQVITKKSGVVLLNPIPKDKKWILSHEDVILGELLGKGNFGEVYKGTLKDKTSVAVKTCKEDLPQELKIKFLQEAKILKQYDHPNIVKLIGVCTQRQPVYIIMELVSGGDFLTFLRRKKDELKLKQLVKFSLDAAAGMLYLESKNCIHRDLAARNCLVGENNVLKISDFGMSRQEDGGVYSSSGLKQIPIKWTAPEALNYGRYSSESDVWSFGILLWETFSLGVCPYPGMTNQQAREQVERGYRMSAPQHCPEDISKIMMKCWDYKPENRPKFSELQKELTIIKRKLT
DYRK2 (human), sequence (Q92630 whole entry, looked up): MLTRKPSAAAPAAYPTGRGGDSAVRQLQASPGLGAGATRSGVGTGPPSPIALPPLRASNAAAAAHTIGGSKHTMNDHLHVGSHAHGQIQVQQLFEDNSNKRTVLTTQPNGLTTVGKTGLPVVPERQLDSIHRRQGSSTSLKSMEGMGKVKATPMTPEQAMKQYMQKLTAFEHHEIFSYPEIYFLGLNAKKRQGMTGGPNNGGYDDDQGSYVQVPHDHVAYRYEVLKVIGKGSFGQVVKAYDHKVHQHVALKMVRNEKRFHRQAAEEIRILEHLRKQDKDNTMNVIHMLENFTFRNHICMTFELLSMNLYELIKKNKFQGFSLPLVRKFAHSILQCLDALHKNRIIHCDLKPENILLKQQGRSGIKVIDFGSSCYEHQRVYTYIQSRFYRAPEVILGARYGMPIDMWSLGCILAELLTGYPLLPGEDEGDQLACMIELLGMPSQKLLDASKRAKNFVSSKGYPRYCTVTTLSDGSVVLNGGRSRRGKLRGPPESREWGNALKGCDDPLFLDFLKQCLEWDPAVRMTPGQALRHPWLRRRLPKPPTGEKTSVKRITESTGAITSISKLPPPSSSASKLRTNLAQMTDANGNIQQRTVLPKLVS

## N#CCCc1ccc2c(c1)-c1[nH]c3ccc([N+](=O)[O-])cc3c1CC(=O)N2
[1]
  residual activity: 97.1%
[2]
  residual activity: 111%
[3]
  residual activity: 86.7%
[4]
  residual activity: 39.7%
[5]
  residual activity: 108%
[6]
  residual activity: 95.1%
[7]
  residual activity: 81.6%
[8]
  residual activity: 46.8%
[9]
  residual activity: 88.5%
[10]
  residual activity: 99.1%
[11]
  residual activity: 102%
[12]
  residual activity: 72.7%
[13]
  residual activity: 15.1%
[14]
  residual activity: 91.5%
[15]
  residual activity: 99.2%
[16]
  residual activity: 74.9%
[17]
  residual activity: 155%
[18]
  residual activity: 99.9%
[19]
  residual activity: 101%
[20]
  residual activity: 14%
[21]
  residual activity: 93.3%
[22]
  residual activity: 67.3%
[23]
  residual activity: 132%
[24]
  residual activity: 101%
[25]
  residual activity: 104%
[26]
  residual activity: 101%
[27]
  residual activity: 89.7%
[28]
  residual activity: 83.9%
[29]
  residual activity: 93.6%
[30]
  residual activity: 97.4%
[31]
  residual activity: 95.4%
[32]
  residual activity: 65.3%
[33]
  residual activity: 87.5%
[34]
  residual activity: 78.4%
[35]
  residual activity: 21.5%
[36]
  residual activity: 85.8%
[37]
  residual activity: 94.2%
[38]
  residual activity: 30.8%
[39]
  residual activity: 107%
[40]
  residual activity: 58%
[41]
  residual activity: 78.7%
[42]
  residual activity: 35.8%

## O=c1c2ccccc2[nH]c(=S)n1CCN1CCC(=C(c2ccc(F)cc2)c2ccc(F)cc2)CC1
[1]
  residual activity: 102%
[2]
  residual activity: 98.3%
[3]
  residual activity: 110%
[4]
  residual activity: 100%
[5]
  residual activity: 101%
[6]
  residual activity: 106%
[7]
  residual activity: 92.5%
[8]
  residual activity: 95.4%
[9]
  residual activity: 112%
[10]
  residual activity: 100%
[11]
  residual activity: 92.8%
[12]
  residual activity: 95.2%
[13]
  residual activity: 104%
[14]
  residual activity: 111%
[15]
  residual activity: 98.3%
[16]
  residual activity: 106%
[17]
  residual activity: 105%
[18]
  residual activity: 98.4%
[19]
  residual activity: 98.1%
[20]
  residual activity: 112%
[21]
  residual activity: 76.2%
[22]
  residual activity: 107%
[23]
  residual activity: 109%
[24]
  residual activity: 94%
[25]
  residual activity: 94%
[26]
  residual activity: 96.2%
[27]
  residual activity: 99.5%
[28]
  residual activity: 112%
[29]
  residual activity: 105%
[30]
  residual activity: 96%
[31]
  residual activity: 100%
[32]
  residual activity: 96.3%
[33]
  residual activity: 101%
[34]
  residual activity: 106%
[35]
  residual activity: 93.1%
[36]
  residual activity: 103%
[37]
  residual activity: 105%
[38]
  residual activity: 103%
[39]
  residual activity: 97.8%
[40]
  residual activity: 93.2%
[41]
  residual activity: 101%
[42]
  residual activity: 99.2%

## N#Cc1c(NC(=O)c2cccc3ccccc23)sc2c1CCCC2
[1]
  residual activity: 106%
[2]
  residual activity: 101%
[3]
  residual activity: 109%
[4]
  residual activity: 99.2%
[5]
  residual activity: 99.3%
[6]
  residual activity: 91.1%
[7]
  residual activity: 109%
[8]
  residual activity: 119%
[9]
  residual activity: 99.6%
[10]
  residual activity: 95.9%
[11]
  residual activity: 95.9%
[12]
  residual activity: 99.7%
[13]
  residual activity: 111%
[14]
  residual activity: 108%
[15]
  residual activity: 94.3%
[16]
  residual activity: 104%
[17]
  residual activity: 92.9%
[18]
  residual activity: 102%
[19]
  residual activity: 99%
[20]
  residual activity: 86.1%
[21]
  residual activity: 112%
[22]
  residual activity: 97.1%
[23]
  residual activity: 93.4%
[24]
  residual activity: 105%
[25]
  residual activity: 93.2%
[26]
  residual activity: 101%
[27]
  residual activity: 99.4%
[28]
  residual activity: 98.9%
[29]
  residual activity: 105%
[30]
  residual activity: 90.9%
[31]
  residual activity: 99.1%
[32]
  residual activity: 95.9%
[33]
  residual activity: 101%
[34]
  residual activity: 103%
[35]
  residual activity: 81.3%
[36]
  residual activity: 111%
[37]
  residual activity: 99.6%
[38]
  residual activity: 93.5%
[39]
  residual activity: 102%
[40]
  residual activity: 97.6%
[41]
  residual activity: 104%
[42]
  residual activity: 104%

## CCOc1cc2ncnc(Nc3cccc(Br)c3)c2cc1OCC
[1]
  residual activity: 93.8%
[2]
  residual activity: 112%
[3]
  residual activity: 88.2%
[4]
  residual activity: 95.2%
[5]
  residual activity: 85.3%
[6]
  residual activity: 98.6%
[7]
  residual activity: 107%
[8]
  residual activity: 88.8%
[9]
  residual activity: 69.5%
[10]
  residual activity: 73.8%
[11]
  residual activity: 99.7%
[12]
  residual activity: 90.7%
[13]
  residual activity: 29%
[14]
  residual activity: 96%
[15]
  residual activity: 88.8%
[16]
  residual activity: 95.1%
[17]
  residual activity: 102%
[18]
  residual activity: 101%
[19]
  residual activity: 116%
[20]
  residual activity: 91.5%
[21]
  residual activity: 101%
[22]
  residual activity: 98.8%
[23]
  residual activity: 99.2%
[24]
  residual activity: 103%
[25]
  residual activity: 100%
[26]
  residual activity: 106%
[27]
  residual activity: 95.9%
[28]
  residual activity: 94.8%
[29]
  residual activity: 92.1%
[30]
  residual activity: 100%
[31]
  residual activity: 94.5%
[32]
  residual activity: 100%
[33]
  residual activity: 95.4%
[34]
  residual activity: 99.8%
[35]
  residual activity: 39.8%
[36]
  residual activity: 95.4%
[37]
  residual activity: 95.8%
[38]
  residual activity: 74.8%
[39]
  residual activity: 102%
[40]
  residual activity: 95.6%
[41]
  residual activity: 104%
[42]
  residual activity: 43.2%
